Source: patent publication US20020042079A1, “METHODS AND AGENTS FOR MEASURING AND CONTROLLING MULTIDRUG RESISTANCE” (priority 1994, published 2002)
Entries after “also recorded” stand apart in the source; their conditions may differ.

Legend:
MCF-7/ADR cells [1] = experiment: Subcellular distribution of Adriamycin fluorescence (confocal microscopy); assay type: cell-based, human; details: MCF-7/ADR, Monensin 5 μM, Bafilomycin A1 500 nM, concanomycin 100 nM, Tamoxifen 10 μM (50 μM in Example 3), verapamil 10 μM, cyclosporin 5 μM
Description: Adriamycin can be excited between 350 nm-550 nm and emits between 400 nm-700 nm.
Labeling of Cells with Adriamycin: Cells were loaded with Adriamycin (10 μM) added to the perfusion medium. […] For epi-fluorescence, the cells were excited with 450-490 nm filter and emission was monitored with a 510 nm longpass filter.

MCF-7adr cells [2] = experiment: Intravesicular pH with SNAFL-calcein; assay type: cell-based, human; details: monensin 10 μg/ml for 30 minutes
Text: FIG. 6a-6c show Measurements of Intravesicular pH utilizing SNAFL-calcein. […] In contrast, significant pH gradients, including an acidic pericentriolar labeling is observed in MCF7adr cells (FIG. 6b). The intravesicular pH in drug-resistant MCF-7adr cells (white bars) is […] than the vesicular pH of the drug-sensitive parental MCF-7 (black bars) (FIG. 6c). This acidic pH difference is reduced by treatment of MCF-7adr cells with monensin (dark grey). Methods: The acetoxymethylester derivative of SNAFL-calcein (15 μg/ml) (a radiometric fluorescent probe for pH) was added to both MCF-7 and MCF-7adr cells. The ester linked fluorescent probe enters the cell passively where the esters are hydrolyzed by esterases located in the cytoplasm and intracellular vesicles. […] The cells were incubated at 37° C. for 45 minutes and then examined in with the Insight confocal fluorescence. […] To obtain a quantitative relationship between emission ratios and pH, each SNAFL-calcein stained cell line was exposed to a buffer at a known pH containing nigericin/high K^+ (18 μM/150 mM KCl). […] These values were then incorporated into a pH imaging routine that provides a direct read-out of pH values for individual intracellular compartments that are queried on the computer screen. […] (c) To prepare histograms of vesicular pH, 5 vesicles within a confocal section were analyzed/cell (20 cells per cell type). […]

[3] = system: fresh liver and kidney tissue from mice; experiment: In vitro acidification of organelles from fresh tissue; assay type: biochemical
Text: The in vitro acidification assay used purified microsomes that had been resuspended in a salt buffer without additional cytosolic or nuclear components.

CHO cells = experiment: Acridine orange labeling of acidic compartments; assay type: cell-based, Chinese Hamster; details: 10 μM tamoxifen, thirty minutes
Description: Labeling of Cells with Acridine Orange: To examine intracellular acidic compartments, acridine orange (6 μM in medium from a 10 mM stock in water) was added directly to cells in the Lab-Tek chambers and the cells were incubated for 15 minutes. Cells in the presence of acridine orange were then examined utilizing an excitation at 488 nm and dual emission confocal images were simultaneously recorded using both a 530-30 band pass barrier filter (green fluorescence) and a 605 nm long pass barrier filter (red fluorescence). Optical sections of the fluorescent samples were recorded at 0.5 micron intervals with a 60×oil immersion objective.
CHO cells are often used for transfection studies with Pgp since endogenous levels of the protein are non-existent, or too low to be measured [Debenham et al., Mol. Cell Biol., 2:881-889 (1982)].

MCF-7/ADR cells [4] = experiment: Transport of BODIPY-transferrin from recycling endosomes to cell surface
MCF-7/ADR cells [5] = experiment: Transport of BODIPY-sphingomyelin from TGN to cell surface; assay type: cell-based, human; details: Tamoxifen 10 μM
Description: When accumulated at high concentrations, BODIPY-sphingomyelin undergoes a green to red shift in fluorescence emission.
Cells were fixed by washing two times in cold fixing buffer (1% paraformaldehyde, 0.1 M sodium cacodylate, 0.1 M sucrose, pH 7.2) followed by a 15 minute incubation in fixing buffer on ice, and then washing two times with cold fixing buffer without paraformaldehyde. […] Biophys.

MCF-7adr cells [6] = experiment: Bodipy-ceramide and Bodipy-lactalbumin labeling of TGN and pericentriolar recycling compartment; assay type: cell-based, human; details: tamoxifen treatment of MCF-7adr cells
Text: Endocytotic pathway (fourth row): To examine internalization, Bodipy-lactalbumin (Bodipy-Lac, Molecular Probes, Eugene, Oreg.) was used as a fluid phase marker.
Conversion of Bodipy-ceramide to Bodipy-sphingomyelin (in cis-Golgi) is associated with the movement of the newly synthesized fluorescent lipid to the trans-Golgi network (TGN). As the Bodipy-sphingomyelin concentration increases within the TGN and secretory vesicles, a long wavelength shift in fluorescence occurs that results in red fluorescent structures (TGN and secretory vesicles) against a green fluorescent background. […] To examine internalization, Bodipy-lactalbumin (Bodipy-Lac, Molecular Probes, Eugene, Oreg.) was used as a fluid phase marker.

SMILES	Adriamycin distribution after addition of agent (MCF-7/ADR cells [1])	Adriamycin distribution after addition of agent (MCF-7/ADR cells [1]; listed as monensin)	pH of acidic vesicular compartments after treatment (MCF-7adr cells [2])	Adriamycin distribution after addition of agent (MCF-7/ADR cells [1]; listed as tamoxifen)	effect on in vitro acidification compared with MCF-7/ADR microsomes [3]	red acridine orange fluorescence after Tamoxifen (CHO cells)	time for intracellular BODIPY-transferrin to decrease to 50% of its steady-state level (MCF-7/ADR cells [4]; 10 μM tamoxifen) [min]	BODIPY-transferrin remaining with cells after 25 minutes (MCF-7/ADR cells [4]; Tamoxifen 10 μM)	BODIPY-transferrin remaining with cells after five minutes (MCF-7/ADR cells [4]; Tamoxifen 10 μM)	sphingomyelin fluorescence remaining associated with the cells after two hours (MCF-7/ADR cells [5])	TGN structure (Bodipy-ceramide labeling) (MCF-7adr cells [6])	structure of the PRC (bodipy-lactalbumin labeling) (MCF-7adr cells [6])
CC[C@@]1([C@@H]2O[C@@H]([C@H]3O[C@@](O)(CO)[C@H](C)C[C@@H]3C)C[C@@H]2C)CC[C@H]([C@]2(C)CC[C@]3(C[C@H](O)[C@@H](C)[C@@H]([C@@H](C)[C@@H](OC)[C@H](C)C(=O)O)O3)O2)O1 [Monensin]	Adriamycin is found to accumulate within the nucleus	redistributed Adriamycin to the nucleoplasm	alkalization of acidic vesicular compartments to pH values observed for drug sensitive MCF-7 cells									
CC/C(=C(\c1ccccc1)c1ccc(OCCN(C)C)cc1)c1ccccc1 [Tamoxifen]	the concentration of Adriamycin in the nucleus was substantially increased			shifts the adriamycin distribution to that observed in the MCF-7 cells; also recorded: shift of Adriamycin from punctate perinuclear compartments	similar	substantially reduced the red acridine orange fluorescence; also recorded: loss of red-orange fluorescence from the cytoplasm of the CHO cells	30	More than 60%	more than 90%	more than 70%	produces a similar fragmentation of TGN structure	disrupts the structure of the PRC
